The term melting point denotes the temperature, or range, at which the solid turns liquid.

Data set [1] is described as follows: Gelation test in solvents at room temperature. Type of data set: physicochemical. More on the design: key to Gelation test result: I, insoluble; P, precipitating; S, soluble at ~20 mg/mL; G, gel at room temperature; number is minimum gelation concentration. Conditions: for Gelation test result / minimum gelation concentration: room temperature; for MGC in DMSO:H2O (1:2): Table 2. Here is the method:
Gelation tests were performed by adding incremental amounts of compounds to a solvent or solvent system at room temperature and observing the results (i.e., gel formation, solubility of compounds, insolubility of compounds, or formation of a precipitate). […] The term “precipation” means that the compound dissolves upon heating and sonicating, however, it crashes out of solution when the heat is removed.
After the compounds were synthesized, they were screened for gelation properties. […] For the compounds with new chiral centers, they formed gels in aqueous environment preferentially.

The nature of data set [2]: Optical micrographs of gels (morphology). Type of data set: physicochemical. Particulars: for morphology of the gel: optical micrographs, FIG. 3. From the text: Solvent for 1(a-d) is DMSO:H2O (1:2); solvent for 1(e-f) is EtOH:H2O (1:2).
The EtOH/H2O gel has shown more uniform fibrous structures with an average diameter of 0.5 μm and over 300 μm in length (FIG. 3e, f).

A short description of the next data set: Gel melting temperatures. Type of data set: physicochemical. Particulars: gel in DMSO:H2O (1:2) at its minimum gelation concentration. The protocol: Melting points were measured for compounds that were gelators in the DMSO:H2O (1:2) solvent system. In general, a compound was dissolved in heated solvent in a small vial at its minimum gelation concentration and transferred into a tube (e.g., an NMR tube) while the mixture was still warm. The tube was sonicated and cooled until a stable gel formed. The tube was immersed in an oil bath and the temperature of the solid-to-liquid phase transition was monitored using a thermometer as the oil bath temperature was changed. Gel melting temperatures are presented in […]

The compound `O=C(CN(Cc1ccccc1)C(=O)c1ccc([N+](=O)[O-])cc1)NC1CCCCC1` [Compound 18, N-benzyl-N-(2-(cyclohexylamino)-2-oxoethyl)-4-nitrobenzamide] gave a melting point of 190 to 192 °C. Further, the “gelation efficiency (in words)” value in data set [1] is reported as “not a very efficient gelator”. In addition, in data set [1] (DMSO aqueous mixture), the “concentration at which gel formed” value worked out at 2 wt %. For the same compound, in data set [1] (DMSO:H2O (1:1)), the Gelation test result is “G” and the minimum gelation concentration worked out at 20.0 mg/mL. In data set [1] (DMSO:H2O (1:2)), the Gelation test result is “G”, the minimum gelation concentration came to 10.0 mg/mL and the “MGC in DMSO:H2O (1:2)” value is listed as 10.0 mg/mL. The Gelation test result in data set [1] (EtOH) is recorded as “P”. In data set [1] (EtOH:H2O (1:1)), the Gelation test result is listed as “G” and the minimum gelation concentration is given as 20.0 mg/mL. Moreover, the Gelation test result in data set [1] (EtOH:H2O (1:2)) is listed as “P”. The Gelation test result in data set [1] (H2O) is “P”. Further, the Gelation test result in data set [1] (Hexane) was “I”. Also, the “morphology of the gel” value in data set [2] is “rod or sheet like feature”. Moreover, in the data set “Gel melting temperatures”, the “T1, temperature at which gel begins to melt” value (from here on “T1, temperature”) turned out to be 91 °C; the “T2, temperature at which gel is approximately half melted” value (“T2, temperature” below) was determined as 95 °C; the “T3, temperature at which gel is fully melted” value (shortened to “T3, temperature”) worked out at 110 °C.
With `CCOC(=O)CNC(=O)CN(Cc1ccc(OC)cc1)C(=O)c1ccc(Br)cc1` [Compound 21, Ethyl 2-(2-(N-(4-methoxybenzyl)-4-bromobenzamido)acetamido)acetate], the melting point is 123 to 125 °C. Besides, in data set [1], the “gelation efficiency (in words)” value is “most efficient gelator identified in this study”. Moreover, in data set [1] (DMSO:H2O (1:1)), the Gelation test result is “G” and the minimum gelation concentration is 2.5 mg/mL. In data set [1] (DMSO:H2O (1:2)), the Gelation test result is “G”, the minimum gelation concentration turned out to be 2.0 mg/mL and the “MGC in DMSO:H2O (1:2)” value is 2.0 mg/mL. In data set [1] (EtOH), the Gelation test result is “G” and the minimum gelation concentration is given as 20.0 mg/mL. Moreover, in data set [1] (EtOH:H2O (1:1)), the Gelation test result is “G” and the minimum gelation concentration was determined as 5.0 mg/mL. Besides, in data set [1] (EtOH:H2O (1:2)), the Gelation test result is reported as “G” and the minimum gelation concentration was 2.8 mg/mL. Moreover, the Gelation test result in data set [1] (H2O) is given as “S (S, soluble at ~20 mg/mL)”. Besides, in data set [1] (Hexane), the Gelation test result was “I”. In addition, in data set [2] (EtOH/H2O gel), the “average diameter of fibrous structures” value is 0.5 μm and the “length of fibrous structures” value is on record as “over 300 μm”. In data set [2], the “morphology of the gel” value was “very long and uniform fibrous assemblies”. In “Gel melting temperatures”, the “T1, temperature” value turned out to be 70 °C; the “T2, temperature” value is 75 °C; the “T3, temperature” value was determined as 81 °C.
`CCOC(=O)CNC(=O)CN(C(=O)c1ccc(Br)cc1)C1C(OC)OC2COC(c3ccccc3)OC2C1O` (stereo not shown) [Compound 26, Ethyl-2-(2-(4-bromo-N-(8-hydroxy-6-methoxy-2-phenyl-hexahydropyrano[3,2-d][1,3]dioxin-7-yl)benzamido)acetamido)acetate] registered a melting point of 207 to 209 °C. Moreover, the “gelation efficiency (in words)” value in data set [1] was “more efficient gelator”. The “concentration at which gel formed” value in data set [1] (DMSO/H2O (1:2)) is 0.66 wt %. In data set [1] (DMSO:H2O (1:1)), the Gelation test result was “G” and the minimum gelation concentration worked out at 10.0 mg/mL. Besides, in data set [1] (DMSO:H2O (1:2)), the Gelation test result is “G”, the minimum gelation concentration amounted to 6.6 mg/mL and the “MGC in DMSO:H2O (1:2)” value is on record as 6.6 mg/mL. The Gelation test result in data set [1] (EtOH) was “I”. In data set [1] (EtOH:H2O (1:1)), the Gelation test result was “G” and the minimum gelation concentration worked out at 20.0 mg/mL. In addition, in data set [1] (EtOH:H2O (1:2)), the Gelation test result is recorded as “G” and the minimum gelation concentration is 10.0 mg/mL. Besides, in data set [1] (H2O), the Gelation test result is “P”. Moreover, in data set [1] (Hexane), the Gelation test result was “I”. Moreover, the “morphology of the gel” value in data set [2] is recorded as “thinner fibrous assembly”. Besides, in the data set “Gel melting temperatures”, the “T1, temperature” value is 110 °C; the “T2, temperature” value is 118 °C; the “T3, temperature” value was 128 °C.

(Values after patent publication US20140296354A1, “SYNTHESIS OF PEPTOID-BASED SMALL MOLECULAR GELATORS FROM MULTIPLE COMPONENT REACTIONS” (OLD DOMINION UNIVERSITY RESEARCH FOUNDATION, priority 2013, published 2014).)
